Source: publication PMC3877016 (PLoS ONE, 2013)
Values belong to the molecule of their own block, whether it stands above or below them.

Key:
BAZ2B = molecular target: T1, BAZ2B (Homo sapiens, UniProt Q9UIF8); assay: Protein thermal denaturation assay; type: binding; conditions: 5 µM protein, 100 µM compound
T1 construct: bromodomains contained within six other proteins (CREBBP, p300, BAZ2B, GCN5, PHIP and SMARC2A); His-tag (N)
Method: (§1) 5 µM of purified bromodomain protein was incubated with 5X SYPRO® Orange (Molecular Probes) at a final concentration of 20 mM HEPES pH 7.4, 100 mM NaCl in the presence of 100 µM compound or DMSO (0.2%) in a fast 96 well optical plate (Applied Biosytems). Samples were incubated at room temperature for 30 minutes and ramped from 25°C to 95°C in a ViiA7 real-time PCR machine (Applied Biosystems). The resulting fluorescence data was analyzed and melting temperatures calculated using Protein Thermal Shift™ Software v1.0 (Life Technologies).

CREBBP = molecular target: T2, CREBBP (Homo sapiens, UniProt Q92793); assay: Protein thermal denaturation assay; type: binding; conditions: 5 µM protein, 100 µM compound
T2 construct: bromodomains contained within six other proteins (CREBBP, p300, BAZ2B, GCN5, PHIP and SMARC2A); His-tag (N)
Method: as §1

GCN5 = molecular target: T3, GCN5 (Homo sapiens, UniProt Q92830); assay: Protein thermal denaturation assay; type: binding; conditions: 5 µM protein, 100 µM compound
T3 construct: bromodomains contained within six other proteins (CREBBP, p300, BAZ2B, GCN5, PHIP and SMARC2A); His-tag (N)
Method: as §1

P300 = molecular target: T4, P300 (Homo sapiens, UniProt Q09472); assay: Protein thermal denaturation assay; type: binding; conditions: 5 µM protein, 100 µM compound
T4 construct: bromodomains contained within six other proteins (CREBBP, p300, BAZ2B, GCN5, PHIP and SMARC2A); His-tag (N)
Method: as §1

PHIP = molecular target: T5, PHIP (Homo sapiens, UniProt Q8WWQ0); assay: Protein thermal denaturation assay; type: binding; conditions: 5 µM protein, 100 µM compound
T5 construct: bromodomains contained within six other proteins (CREBBP, p300, BAZ2B, GCN5, PHIP and SMARC2A); His-tag (N)
Method: as §1

SMARCA2A = molecular target: T6, SMARCA2A (Homo sapiens, UniProt P51531); assay: Protein thermal denaturation assay; type: binding; conditions: 5 µM protein, 100 µM compound
T6 construct: bromodomains contained within six other proteins (CREBBP, p300, BAZ2B, GCN5, PHIP and SMARC2A); His-tag (N)
Method: as §1

[1] = tested on: ApoA-I mRNA in Huh7 cells; assay: Induction of ApoA-I mRNA in Huh7 cells (RT-PCR); type: cell-based, human; conditions: for Induction of ApoA-I mRNA: 48 h
Method: (§2) Huh7 cells were plated at 23,000/well in a 96 well plate in DMEM +10% FBS before allowing to grow overnight. Cells were treated with compounds for 48 h in 0.1%DMSO with or without 5 µM Actinomycin D. U937 cells were differentiated for 3 days in 60 ng/mL PMA, 32,000 cells/well in 96-well format. Cells were then treated with compound in 0.1%DMSO in RPMI media +10%FBS, and after 1 h, lipopolysaccharide (LPS, Sigma) was added to the cells at 1 µg/mL for 3 hours.
(§3) Cells were harvested by mRNA Catcher PLUS Kit followed by real-time PCR using the RNA UltraSense One-Step qRT-PCR System. ApoA-I, IL-6 and TNFα mRNA levels were measured relative to the endogenous control serpin A1 or cyclophilin in the same sample. Data was acquired using the 7500 Real Time PCR System (Applied Biosystems).

IL-6 mRNA in U937 cells = assay: Inhibition of IL-6 mRNA in LPS-stimulated U937 cells (RT-PCR); type: cell-based, human; conditions: U937 cells differentiated with PMA
Method: as §2, §3

BRD2[BD1] [2] = molecular target: T7, BRD2[BD1] (Homo sapiens, UniProt P25440); assay: Protein thermal denaturation assay; type: binding
T7 construct: we expressed and purified the bromodomains (BD1, BD2) for the BETs expressed in hepatocytes (BRD2, BRD3, BRD4)
Method: as §1

BRD2[BD2] [3] = molecular target: T8, BRD2[BD2] (Homo sapiens, UniProt P25440); assay: Protein thermal denaturation assay; type: binding
T8 construct: we expressed and purified the bromodomains (BD1, BD2) for the BETs expressed in hepatocytes (BRD2, BRD3, BRD4)
Method: as §1

BRD3[BD1] = molecular target: T9, BRD3[BD1] (Homo sapiens, UniProt Q15059); assay: Protein thermal denaturation assay; type: binding; conditions: 5 µM protein, 100 µM compound
T9 construct: we expressed and purified the bromodomains (BD1, BD2) for the BETs expressed in hepatocytes (BRD2, BRD3, BRD4)
Method: as §1

BRD3[BD2] = molecular target: T10, BRD3[BD2] (Homo sapiens, UniProt Q15059); assay: Protein thermal denaturation assay; type: binding; conditions: 5 µM protein, 100 µM compound
T10 construct: we expressed and purified the bromodomains (BD1, BD2) for the BETs expressed in hepatocytes (BRD2, BRD3, BRD4)
Method: as §1

BRD4[BD1] [4] = molecular target: T11, BRD4[BD1] (Homo sapiens, UniProt O60885); assay: Protein thermal denaturation assay; type: binding
T11 construct: we expressed and purified the bromodomains (BD1, BD2) for the BETs expressed in hepatocytes (BRD2, BRD3, BRD4)
Method: as §1

BRD4[BD2] [5] = molecular target: T12, BRD4[BD2] (Homo sapiens, UniProt O60885); assay: Protein thermal denaturation assay; type: binding
T12 construct: we expressed and purified the bromodomains (BD1, BD2) for the BETs expressed in hepatocytes (BRD2, BRD3, BRD4)
Method: as §1

[6] = molecular target: BRDT tandem bromodomains [BD1 BD2] (Homo sapiens, UniProt Q58F21); assay: TR-FRET competition assay, tandem bromodomains; type: binding
Method: (§4) For inhibition assays, serially diluted compound was added to these reactions in a 0.2% final concentration of DMSO. Final buffer concentrations were 30 mM HEPES pH 7.4, 30 mM NaCl, 0.3 mM CHAPS, 20 mM PO4 pH 7.0, 320 mM KF, 0.08% BSA). After 2 h incubation at room temperature, the fluorescence by FRET was measured at 665 and 620 nm by a SynergyH4 plate reader (Biotek). IC50 values were determined from a dose response curve.

BRD2[BD1] [7] = molecular target: T7, BRD2[BD1]; assay: Isothermal titration calorimetry; type: binding; conditions: ITC, 25°C
BRD2[BD2] [8] = molecular target: T8, BRD2[BD2]; assay: Isothermal titration calorimetry; type: binding; conditions: ITC, 25°C
BRD4[BD1] [9] = molecular target: T11, BRD4[BD1]; assay: Isothermal titration calorimetry; type: binding; conditions: ITC, 25°C
BRD4[BD2] [10] = molecular target: T12, BRD4[BD2]; assay: Isothermal titration calorimetry; type: binding; conditions: ITC, 25°C
[11] = molecular target: BD1 bromodomains of BRDs 2 and 3; assay: TR-FRET competition assay; type: binding, human; conditions: BD1 of BRDs 2 and 3, text summary citing Table 3
Method: as §4, with “200 nM N-terminally His-tagged bromodomains or BRD4(BD1BD2) and 25–50 nM biotinylated tetra-acetylated histone H4 peptide (Millipore) were incubated in the presence of Europium Cryptate-labeled streptavidin (Cisbio Cat. #610SAKLB) and XL665-labeled monoclonal anti-His antibody (Cisbio Cat.#61HISXLB) in a white 96 well microtiter plate (Greiner). For” for “For”

[12] = tested on: bromodomains of CREBBP, p300, BAZ2B, GCN5, PHIP and SMARC2A; assay: Protein thermal denaturation assay (text summary); type: binding
Method: as §1

[13] = tested on: BRDs2, 3 and 4 on chromatin in Huh7 cells; assay: Extraction of soluble BET proteins from chromatin (Western blot); type: cell-based, human
Method: Soluble proteins were extracted using a buffer containing 0.5% Triton X-100 (10 mM PIPES pH 6.8, 300 mM sucrose, 50 mMNaCl, 3 mM MgCl2, 1 mM EGTA, 2 mM ribonucleoside vanadyl complex) as previously described.

[14] = molecular target: T13, PHIP on chromatin in Huh7 cells (Homo sapiens, UniProt Q8WWQ0); assay: Extraction of soluble proteins from chromatin (Western blot); type: cell-based
T13 construct: endogenous in cells; host or cells: Huh7
Method: Soluble proteins were extracted using a buffer containing 0.5% Triton X-100 (10 mM PIPES pH 6.8, 300 mM sucrose, 50 mMNaCl, 3 mM MgCl2, 1 mM EGTA, 2 mM ribonucleoside vanadyl complex) as previously described. After loading on a 4–12% NuPAGE gradient gel (Life Technologies), the soluble and chromatin-containing pellet fractions were evaluated by Western blot with the following antibodies and dilutions: BRD2 (Bethyl, A302-583A, 1∶5000); BRD3 (Bethyl A302-368A, 1∶2000); BRD4 (Bethyl A301-985A, 1∶1000); PHIP (Abcam ab86244, 1∶2000), HNF4a (Perseus PPH1415, 1∶1000); NR2F2 (Perseus PPH7147, 1∶1000).

ApoA-I mRNA in HepG2 = conditions: cited from earlier work
[15] = tested on: cholesterol efflux capacity; conditions: monkeys; cited from earlier work
ApoA-I and HDL-C levels = tested on: ApoA-I and HDL-C levels; design: method as in PMID 21255957; conditions: statin-treated patients with coronary artery disease; cited from earlier work

T8 sequence (P25440 344-453 limits assumed): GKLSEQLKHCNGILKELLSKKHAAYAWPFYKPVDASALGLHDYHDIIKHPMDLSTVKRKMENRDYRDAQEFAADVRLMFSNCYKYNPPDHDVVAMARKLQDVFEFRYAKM
T1 sequence (Q9UIF8 2060-2164 limits assumed): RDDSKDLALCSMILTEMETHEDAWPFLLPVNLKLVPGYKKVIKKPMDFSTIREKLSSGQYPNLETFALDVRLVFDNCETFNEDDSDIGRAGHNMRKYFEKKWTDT
T6 sequence (P51531 1378-1506 limits assumed): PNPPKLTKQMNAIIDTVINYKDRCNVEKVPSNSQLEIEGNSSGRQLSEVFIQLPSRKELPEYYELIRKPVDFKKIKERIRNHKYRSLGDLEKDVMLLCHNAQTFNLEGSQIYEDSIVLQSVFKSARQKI
T7 sequence (P25440 74-180 limits assumed): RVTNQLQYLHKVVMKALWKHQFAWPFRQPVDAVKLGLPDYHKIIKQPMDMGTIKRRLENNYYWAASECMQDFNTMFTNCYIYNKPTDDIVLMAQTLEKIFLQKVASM
T3 sequence (Q92830 728-832 limits assumed): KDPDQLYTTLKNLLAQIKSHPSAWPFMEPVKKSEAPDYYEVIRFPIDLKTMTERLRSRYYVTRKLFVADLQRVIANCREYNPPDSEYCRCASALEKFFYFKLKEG
T2 sequence (Q92793 1085-1192 limits assumed): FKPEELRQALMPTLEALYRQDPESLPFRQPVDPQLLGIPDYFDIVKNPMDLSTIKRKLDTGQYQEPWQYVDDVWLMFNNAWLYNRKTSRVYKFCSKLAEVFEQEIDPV
T4 sequence (Q09472 1049-1156 limits assumed): as the sequence (Q92793 1085-1192 limits assumed) above, with N47S, V73I, F93Y, A98S counted along it
T9 sequence (Q15059 34-140 limits assumed): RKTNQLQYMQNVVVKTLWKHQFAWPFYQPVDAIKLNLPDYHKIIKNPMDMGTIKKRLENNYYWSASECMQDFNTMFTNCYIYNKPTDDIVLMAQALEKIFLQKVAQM
T10 sequence (Q15059 306-415 limits assumed): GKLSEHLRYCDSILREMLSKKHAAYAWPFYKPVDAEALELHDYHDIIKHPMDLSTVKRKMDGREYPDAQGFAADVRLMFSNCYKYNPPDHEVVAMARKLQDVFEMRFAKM

Compound: Cc1sc2c(c1C)C(c1ccc(Cl)cc1)=N[C@@H](CC(=O)OC(C)(C)C)c1nnc(C)n1-2 [JQ-1, reference compound]
Thermal denaturation ΔTm (BAZ2B): −0.83 °C
Thermal denaturation ΔTm (CREBBP): −1.0 °C
Thermal denaturation ΔTm (GCN5): −0.7 °C
Thermal denaturation ΔTm (P300): −1.4 °C
Thermal denaturation ΔTm (PHIP): −1.4 °C
Thermal denaturation ΔTm (SMARCA2A): 0.4 °C
Induction of ApoA-I mRNA [1]: induces ApoA-I mRNA
Suppression of IL-6 mRNA (IL-6 mRNA in U937 cells): selectively suppresses IL-6 mRNA

ΔTm at 100 µM (BAZ2B): 0 °C
ΔTm at 100 µM (BRD2[BD1] [2]): 1.9 °C
ΔTm at 100 µM (BRD2[BD2] [3]): 5.1 °C
ΔTm at 100 µM (BRD3[BD1]): 2.6 °C
ΔTm at 100 µM (BRD3[BD2]): 6.8 °C
ΔTm at 100 µM (BRD4[BD1] [4]): 3.9 °C
ΔTm at 100 µM (BRD4[BD2] [5]): 7.7 °C
ΔTm at 100 µM (CREBBP): -0.3 °C
ΔTm at 100 µM (GCN5): 0 °C
ΔTm at 100 µM (P300): -0.16 °C
ΔTm at 100 µM (PHIP): 0.19 °C
ΔTm at 100 µM (SMARCA2A): 0.4 °C
IC50 [6]: 1450 nM
ΔH (BRD2[BD1] [7]): -12.67 kcal/mol
ΔH (BRD2[BD2] [8]): -4.145 kcal/mol
ΔS (BRD2[BD2] [8]): +16.7 cal mol^−1 K^−1
ΔH (BRD4[BD1] [9]): -17.04 kcal/mol
ΔS (BRD4[BD1] [9]): −34.1 cal mol^−1 K^−1
ΔH (BRD4[BD2] [10]): -6.376 kcal/mol
ΔS (BRD4[BD2] [10]): +8.44 cal mol^−1 K^−1
Kd [11]: 2000 to 3000 nM
Binding to bromodomains of six other proteins [12]: did not bind
Release of BRDs2, 3 and 4 from chromatin into soluble fraction [13]: partially released from chromatin
Compound: COc1cc(OC)c2c(=O)[nH]c(-c3cc(C)c(OCCO)c(C)c3)nc2c1 [RVX-208, 2-(4-(2-hydroxyethoxy)-3,5-dimethylphenyl)-5,7-dimethoxyquinazolin-4(3H)-one]
Induction of ApoA-I in presence of Actinomycin D ([1]; 30 µM RVX-208, with 5 µM Actinomycin D): inhibited by Actinomycin D
Induction of ApoA-I mRNA [1]: induces ApoA-I mRNA
Suppression of IL-6 mRNA (IL-6 mRNA in U937 cells): selectively suppresses IL-6 mRNA
Duration of release of BET proteins from chromatin [13]: more than 48 h
Time to release of BET proteins from chromatin ([13]; time of treatment): ≤ 2 h
Release of PHIP from chromatin [14]: stays in the insoluble (pellet, P) fraction
Induction of ApoA-I mRNA (ApoA-I mRNA in HepG2): induces ApoA-I mRNA
Systemic capacity to promote cholesterol efflux [15]: enhanced systemic capacity to promote cholesterol efflux
ApoA-I levels (ApoA-I and HDL-C levels): increased
HDL-C levels (ApoA-I and HDL-C levels): increased
